This passage reports IC50 results from patent US10131664B2 (Celgene Quanticel Research, Inc., priority 2013, dated 2018).

pIC50: −log10 of the molar value.

For one test, the target named is full-length human LSD1 (Homo sapiens (Human), UniProt O60341). As to the kind of experiment: In vitro enzyme inhibition assay LSD-1 (TR-FRET). The class given is biochemical. To be noted: TR-FRET, 0.1 nM LSD1, 50 nM H3K4me1-biotin peptide, 2 μM FAD, pH7.3; read-out: LSD1 IC50. Here is the method:
This assay determines the ability of a test compound to inhibit LSD1 demethylase activity.
The enzymatic assay of LSD1 activity is based on Time Resolved-Fluorescence Resonance Energy Transfer (TR-FRET) detection.
The ability of the compounds disclosed herein to inhibit LSD1 activity was quantified and the respective IC50 value was determined. Table 5 provides the IC50 values of various substituted heterocyclic compounds disclosed herein.

The subject of a further test is THP-1 (AML) cells. Kind of test: LSD1 CD11b cellular assay (flow cytometry). It counts as cell-based. To be noted: Homo sapiens, 96 h; CD11b expression in THP-1 (AML) cells, flow cytometry, 4 days incubation; read-out: Cellular IC50. Summed up:
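THP-1 AML cells treated with serially diluted compound (0.2% DMSO final) for 4 days at 37 °C, 5% CO2. CD11b expression measured by flow cytometry with DAPI staining; IC50 derived from percent CD11b-positive cells versus inhibitor concentration.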

For the compound `N#Cc1ccc(-c2nc(N3CCC(N)CC3)ncc2-c2cnc(N3CCCC3)nc2)cc1F` [Example 135, 4-[2-(4-aminopiperidin-1-yl)-5-(2-pyrrolidin-1-ylpyrimidin-5-yl)pyrimidin-4-yl]-2-fluorobenzonitrile], the pIC50 on full-length human LSD1 and in the test on THP-1 (AML) cells was above 7.00 each time.
With `Cn1cnc2cc(-c3cnc(N4CCC(N)CC4)nc3-c3ccc(C#N)c(F)c3)cnc21` [Example 136, 4-[2-(4-aminopiperidin-1-yl)-5-(3-methylimidazo[4,5-b]pyridin-6-yl)pyrimidin-4-yl]-2-fluorobenzonitrile], the pIC50 at full-length human LSD1 and in the test on THP-1 (AML) cells was above 7.00 in each case.
Take `Cn1cnc2cc(-c3cnc(N4CCC5(CCNC5)CC4)nc3-c3ccc(C#N)c(F)c3)cnc21` [Example 137, 4-[2-(2,8-diazaspiro[4.5]decan-8-yl)-5-(3-methylimidazo[4,5-b]pyridin-6-yl)pyrimidin-4-yl]-2-fluorobenzonitrile]: the pIC50 on full-length human LSD1 and in the test on THP-1 (AML) cells was above 7.00 in each case.
With `Cc1nc2cc(-c3cnc(N4CCC(N)CC4)nc3-c3ccc(C#N)c(F)c3)ccc2n1C` [Example 138, 4-[2-(4-aminopiperidin-1-yl)-5-(1,2-dimethylbenzimidazol-5-yl)pyrimidin-4-yl]-2-fluorobenzonitrile], the pIC50 on full-length human LSD1 and in the test on THP-1 (AML) cells was above 7.00 each time.
For the compound `Cn1nnc2cc(-c3cnc(N4CCC(N)CC4)nc3-c3ccc(C#N)c(F)c3)cnc21` [Example 139, 4-[2-(4-aminopiperidin-1-yl)-5-(3-methyltriazolo[4,5-b]pyridin-6-yl)pyrimidin-4-yl]-2-fluorobenzonitrile], the pIC50 at full-length human LSD1 and in the test on THP-1 (AML) cells was above 7.00 each time.
Consider `CNc1ncc(-c2cnc(N3CCC(N)CC3)nc2-c2ccc(C#N)c(F)c2)cn1` [Example 140, 4-[2-(4-aminopiperidin-1-yl)-5-[2-(methylamino)pyrimidin-5-yl]pyrimidin-4-yl]-2-fluorobenzonitrile], for which the pIC50 at full-length human LSD1 was above 7.00; in the test on THP-1 (AML) cells, 6.00 to 7.00.
The like results for `N#Cc1ccc(-c2nc(N3CCC(N)CC3)ncc2-c2cnc(NC3CC3)nc2)cc1F` [Example 141, 4-[2-(4-aminopiperidin-1-yl)-5-[2-(cyclopropylamino)pyrimidin-5-yl]pyrimidin-4-yl]-2-fluorobenzonitrile] were, in that order, above 7.00 and above 7.00.
The like results for `N#Cc1ccc(-c2nc(N3CCC(N)CC3)ncc2-c2cnn(C3CCOCC3)c2)cc1F` [Example 142, 4-[2-(4-aminopiperidin-1-yl)-5-[1-(oxan-4-yl)pyrazol-4-yl]pyrimidin-4-yl]-2-fluorobenzonitrile] were, in that order, above 7.00 and above 7.00.
For the compound `Cn1cc2cc(-c3cnc(N4CCC(N)C4)nc3-c3ccc(C#N)c(F)c3)ccc2n1` (centres unmarked) [Example 143, 4-[2-(3-aminopyrrolidin-1-yl)-5-(2-methylindazol-5-yl)pyrimidin-4-yl]-2-fluorobenzonitrile], the pIC50 on full-length human LSD1 and in the test with THP-1 (AML) cells was above 7.00 in each case.
Take `Cn1cc2cc(-c3cnc(N4CC5C(N)C5C4)nc3-c3ccc(C#N)c(F)c3)ccc2n1` (centres unmarked) [Example 144, 4-[2-(6-amino-3-azabicyclo[3.1.0]hexan-3-yl)-5-(2-methylindazol-5-yl)pyrimidin-4-yl]-2-fluorobenzonitrile]: the pIC50 was above 7.00 on full-length human LSD1 and 6.00 to 7.00 with THP-1 (AML) cells.
For `Cn1ncc2cc(-c3cnc(N4CCC(N)CC4)nc3-c3ccc(C#N)c(F)c3)cnc21` [Example 145, 4-[2-(4-aminopiperidin-1-yl)-5-(1-methylpyrazolo[3,4-b]pyridin-5-yl)pyrimidin-4-yl]-2-fluorobenzonitrile], in that order: above 7.00 and above 7.00.
For `N#Cc1ccc(-c2nc(N3CCC4CNCC4CC3)ncc2-c2ccc3scnc3c2)cc1` (centres unmarked) [Example 146, 4-[2-(2,3,3a,4,5,7,8,8a-octahydro-1H-pyrrolo[3,4-d]azepin-6-yl)-5-(1,3-benzothiazol-5-yl)pyrimidin-4-yl]benzonitrile], in that order: above 7.00 and above 7.00.
The like results for `COc1nc(N2CCC(N)CC2)nc(-c2ccc(C#N)c(F)c2)c1-c1ccc2nn(C)cc2c1` [Example 147, 4-[2-(4-aminopiperidin-1-yl)-6-methoxy-5-(2-methyl-2H-indazol-5-yl)pyrimidin-4-yl]-2-fluorobenzonitrile] were, in that order, above 7.00 and above 7.00.
On to `COc1nc(N2CCCNCC2)nc(-c2ccc(C#N)c(F)c2)c1-c1ccc2nn(C)cc2c1` [Example 148, 4-[2-(1,4-diazepan-1-yl)-6-methoxy-5-(2-methyl-2H-indazol-5-yl)pyrimidin-4-yl]-2-fluorobenzonitrile], for which the pIC50 at full-length human LSD1 and in the test with THP-1 (AML) cells was above 7.00 throughout.
As to `COc1nc(N2CCCC(N)CC2)nc(-c2ccc(C#N)c(F)c2)c1-c1ccc2nn(C)cc2c1` (centres unmarked) [Example 149, 4-[2-(4-aminoazepan-1-yl)-6-methoxy-5-(2-methyl-2H-indazol-5-yl)pyrimidin-4-yl]-2-fluorobenzonitrile], the pIC50 at full-length human LSD1 and in the test on THP-1 (AML) cells was above 7.00 each time.
For the compound `COc1nc(N2CCC(N)CC2)nc(-c2ccc(C#N)c(F)c2)c1-c1ccc2cn(C)nc2c1` [Example 150, 4-[2-(4-aminopiperidin-1-yl)-6-methoxy-5-(2-methyl-2H-indazol-6-yl)pyrimidin-4-yl]-2-fluorobenzonitrile], the pIC50 at full-length human LSD1 and with THP-1 (AML) cells was above 7.00 each time.
Regarding `COc1nc(N2CCC(N)CC2)nc(-c2ccc(C#N)c(F)c2)c1-c1ccc2c(c1)nnn2C` [Example 151, 4-[2-(4-aminopiperidin-1-yl)-6-methoxy-5-(1-methyl-1H-1,2,3-benzotriazol-5-yl)pyrimidin-4-yl]-2-fluorobenzonitrile], the negative-log IC50 (pIC50) at full-length human LSD1 and in the test with THP-1 (AML) cells was above 7.00 each time.
Take `COc1nc(N2CCC(N)CC2)nc(-c2ccc(C#N)cc2)c1-c1ccc2nn(C)cc2c1` [Example 152, 4-[2-(4-aminopiperidin-1-yl)-6-methoxy-5-(2-methyl-2H-indazol-5-yl)pyrimidin-4-yl]benzonitrile]: the pIC50 on full-length human LSD1 and with THP-1 (AML) cells was above 7.00 each time.
Consider `COc1nc(N2CCC(N)CC2)nc(-c2ccc(C#N)cc2)c1-c1cnn(CC(F)(F)F)c1` [Example 153, 4-[2-(4-aminopiperidin-1-yl)-6-methoxy-5-[1-(2,2,2-trifluoroethyl)-1H-pyrazol-4-yl]pyrimidin-4-yl]benzonitrile], for which the negative logarithm of the IC50 (pIC50) at full-length human LSD1 and in the test with THP-1 (AML) cells was above 7.00 each time.
Consider `COc1nc(N2CCC(N)CC2)nc(-c2ccc(C#N)cc2)c1-c1ccc2c(c1)nnn2C` [Example 154, 4-[2-(4-aminopiperidin-1-yl)-6-methoxy-5-(1-methyl-1H-1,2,3-benzotriazol-5-yl)pyrimidin-4-yl]benzonitrile], for which the pIC50 at full-length human LSD1 and with THP-1 (AML) cells was above 7.00 in each case.
As for `COc1nc(N2CCC(N)CC2)nc(-c2ccc(C#N)cc2)c1-c1ccc(N(C)C)nc1` [Example 155, 4-[2-(4-aminopiperidin-1-yl)-5-[6-(dimethylamino)pyridin-3-yl]-6-methoxypyrimidin-4-yl]benzonitrile], the pIC50 at full-length human LSD1 and in the test on THP-1 (AML) cells was above 7.00 throughout.
Consider `COc1nc(N2CCC(N)CC2)nc(-c2ccc(C#N)cc2)c1-c1cnc(N(C)C)nc1` [Example 156, 4-[2-(4-aminopiperidin-1-yl)-5-[2-(dimethylamino)pyrimidin-5-yl]-6-methoxypyrimidin-4-yl]benzonitrile], for which the pIC50 on full-length human LSD1 and in the test on THP-1 (AML) cells was above 7.00 in each case.

As a reminder, the pIC50 is the IC50 on a negative log10 scale, so that one unit is a factor of ten.
